Test results as given in US8349835B2, “Aromatic ring fused triazine derivatives and uses thereof” (Shenyang Pharmaceutical University, priority 2008, dated 2013).
pIC50: −log10 of the molar value.

Legend:
[1] = test system: chorioallantoic membrane vessels; test: Activity test by chick chorioallantoic membrane method; format: in vivo; conditions: 5 uL medicine on cellulose membrane, chick embryo, 2 days
Description: After the shell membrane became wet, tore it open with ophthalmological tweezers so to expose the chorioallantoic membrane. • 6) Added 5 uL of selected medicine to a 0.5×0.5 cm cellulose membrane sterilized by high pressure, then set the membrane on the part of the chorioallantoic membrane with fewer vessels • 7) Closed the window, and put the embryos back into the hatch box to hatch for 2 days. • 8) Opened the transparent tape, and then opened the mixed cellulose membrane lightly with a tweezers. Measured the avascular area and took photographs.

Rat aortic ring = test: Rat Aortic Ring Assay; format: cell-based; conditions: for Rat Aortic Ring Assay (10 ug/ml), result in words: observed on the sixth day; for inhibition at 10 µg/mL: Rattus norvegicus, 10 ug/ml, compared with blank control, sixth day
From the text: Rat Aortic Ring Assay • 1) 6 week old SD […] (Sprague Dawley) were selected for the experiments. Cleaned abdominal skin with 75% ethanol to disinfect, and then anesthetized the mice with ether, • 2) Carefully removed the abdominal aortas and transferred the aortas to normal saline. Excessive vascular tissues were carefully removed with scissors. • 3) The aortas were rinsed with normal saline until no blood stain remained. • 4) Sectioned the aortas into one millimeter depth arterial slices with ophthalmological scissors. • 5) Add 50 μL pre-thawed Matrigel to each well of the pre-cooled 96 well cell culture plates, and embedded the ring-shaped mouse aortas in collagen gel. • 6) Incubated for 60 minutes at 37° C. to solidificate the gel. • 7) Added DMEM culture solution containing 10% FBS, along with different concentrations of the selected compounds into the wells and cultured in the incubator. Every compound was repeated in no less than 3 wells. • 8) Replaced with the fresh medium and changed the medicine once on the third day. • 9) Took out the pates on the sixth day, and observed the vascular growth with Microscope (OLYMPUS, DP70, Japan) and took photographs(×100). Randomly chose 3 arterial rings to photograph and calculated the area covered by micro-vascular with Image Pro Plus software. The inhibition rate is calculated as:
[formula] • Evaluation criteria: ⋆inhibition rate[…]; ⋆⋆inhibition rate 60-90%; ⋆⋆⋆inhibition rate>90%.

VEGFR-2 = VEGFR-2 (Homo sapiens, UniProt P35968); test: VEGFR-2 inhibition rate test (kinase assay kit, colorimetric ELISA); conditions: concentration not given
Chain of VEGFR-2 (P35968 20-1356): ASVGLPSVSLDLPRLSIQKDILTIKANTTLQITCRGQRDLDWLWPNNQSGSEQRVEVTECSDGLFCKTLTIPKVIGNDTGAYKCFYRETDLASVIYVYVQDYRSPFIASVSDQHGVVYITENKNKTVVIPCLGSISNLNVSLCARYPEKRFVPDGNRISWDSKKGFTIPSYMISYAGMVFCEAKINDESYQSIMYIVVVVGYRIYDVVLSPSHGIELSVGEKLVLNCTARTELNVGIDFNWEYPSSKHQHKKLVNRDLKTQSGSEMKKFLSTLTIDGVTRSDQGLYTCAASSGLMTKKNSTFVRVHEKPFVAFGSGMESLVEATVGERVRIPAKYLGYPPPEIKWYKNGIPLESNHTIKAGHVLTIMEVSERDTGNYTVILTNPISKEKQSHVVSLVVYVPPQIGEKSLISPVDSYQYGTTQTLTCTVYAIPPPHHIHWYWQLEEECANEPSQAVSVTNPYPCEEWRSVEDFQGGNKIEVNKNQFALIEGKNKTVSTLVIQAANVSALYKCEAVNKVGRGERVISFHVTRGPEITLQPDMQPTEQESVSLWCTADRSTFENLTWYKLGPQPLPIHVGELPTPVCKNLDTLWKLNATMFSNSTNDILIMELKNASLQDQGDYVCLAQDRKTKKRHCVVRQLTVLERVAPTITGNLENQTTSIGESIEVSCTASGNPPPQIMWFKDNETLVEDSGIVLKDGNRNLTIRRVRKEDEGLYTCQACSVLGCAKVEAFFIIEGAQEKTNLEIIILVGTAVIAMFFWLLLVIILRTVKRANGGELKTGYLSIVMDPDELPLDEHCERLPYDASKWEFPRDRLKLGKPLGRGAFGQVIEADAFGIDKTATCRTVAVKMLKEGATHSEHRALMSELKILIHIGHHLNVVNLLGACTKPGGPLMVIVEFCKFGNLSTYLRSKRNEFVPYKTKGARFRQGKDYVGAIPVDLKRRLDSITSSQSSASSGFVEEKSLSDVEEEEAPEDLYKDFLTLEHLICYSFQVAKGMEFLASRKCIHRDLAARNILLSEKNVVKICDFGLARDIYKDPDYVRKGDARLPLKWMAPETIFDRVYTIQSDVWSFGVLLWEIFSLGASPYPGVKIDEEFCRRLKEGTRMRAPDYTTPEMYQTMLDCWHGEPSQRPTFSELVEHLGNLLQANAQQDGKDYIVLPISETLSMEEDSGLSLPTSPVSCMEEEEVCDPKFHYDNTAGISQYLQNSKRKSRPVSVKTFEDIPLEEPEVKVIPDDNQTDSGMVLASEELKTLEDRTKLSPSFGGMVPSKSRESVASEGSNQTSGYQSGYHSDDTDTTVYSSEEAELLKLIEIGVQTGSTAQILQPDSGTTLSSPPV

[2] = test system: Microvascular Endothelial Cells (MVEC); test: MTT growth inhibition of MVEC; format: cell-based; conditions: Endothelial cell, 96 h, 4 days culture with drug, read-out: IG50 on inhibiting growth of MVEC
Description: In Vitro Anti-Tumor Activity Test
Put cell suspension into centrifugal tubes with a pipette under sterile conditions, then the cell suspension was centrifuged for 3 minutes at 1300 rpm. Discarded the supernatant lightly and added fresh culture medium. Mixed the cells by pipetting, then transferred the cells into culture flasks, and put them into the CO2 incubator. Changed the culture medium once after 24 hours.
Human prostate cancer cells (DU145, PC-3) were cultured in a medium containing RPMI1640 basic medium supplemented with 10% heat-inactivated FBS, 100 IU/mL penicillin, 100 μg/mL streptomycin and 1 mmol/L L-glutamine. Human breast carcinoma cells (T47D, MDA-MB231) were cultured in a medium containing RPM11640 basic medium supplemented with 10% heat-inactivated FBS, 5 μg/mL insulin, 100 IU/mL penicillin, 100 μg/mL streptomycin and 1 mmol/L L-glutamine. Human breast carcinoma cells (MCF-7) were cultured in a medium containing DMEM basic medium supplemented with 10% heat-inactivated FBS, 5 μg/mL insulin, 100 IU/mL penicillin, 100 μg/mL streptomycin and […]. Murine Lewis lung cancer cells (LL/2), murine melanoma cells (B16FD) and Microvascular Endothelial Cells (MVEC) were cultured in a medium containing DMEM basic medium supplemented with 10% heat-inactivated FBS, 4.5 g/L glucose, 1.5 g/L NaHCO3, 100 IU/mL penicillin, 100 μg/mL streptomycin and 4 mmol/L L-glutamine. All these cell lines were incubated at 37° C. biochemical incubator with 5% CO2 saturated humidity.
After resuscitation, the cells were passed for 2-3 generations till they became stable, then they were used for the experiments. Each passage was based on the standard that all cells were spread over the bottoms of culture flasks.
Cells were digested off from the bottoms of culture flasks with trypsin (0.25%). The cell dissociation buffer was transferred into centrifuge tubes, added medium to stop the digestion, and centrifuged for 3 minutes at 1300 rpm. Discarded the supernatant lightly and added fresh culture medium (5 mL). Mixed the cells by pipetting, then added 10 μL of the cell suspension into the cell counting plate, and adjusted the cell concentration to 2×10^4 cells/mL. Added 100 μL of the cell suspension to all wells on the 96 well plates, except A1 well as the blank control. Put the plates into the biochemical incubator for 24 hours and to make sure the cells grew along the walls.
The drugs were dissolved in 80 mmol/L DMSO first, and then diluted the drugs with ethanol to 8 mmol/L. The solution was further diluted with the culture medium to different concentrations as 160 μmol/L, 120 μmol/L, 80 μmol/L, 40 μmol/L, 20 μmol/L and 10 μmol/L. Added 100 μL of the drug solution to each well on the 96 well plates. Therefore, the final concentrations of the drugs that were added to the cells were 80 μmol/L, 40 μmol/L, 20 μmol/L, 10 μmol/L and 5 μmol/L, and each concentration were repeated in three parallel wells. Put the culture plates into the biochemical incubator to culture continuously for 4 days.
Added 50 μL MTT liquids (2 mg/mL) into each well, put the culture plates into the biochemical incubator for 4 h, discarded MTT liquids (TCC), added 200 μL DMSO, then oscillated for 10 minutes on the magnetic oscillator to make sure that the survived cells and the reaction product of MTT were fully dissolved. Detected and recorded the absorbance (OD) values of each well at the wavelength of 570 nm using the microplate reader. The OD values of cells without tested drugs were used as control. The cell growth inhibition rates under each drug concentration were calculated by the following formula. […] Inhibition rate of growth(%)=(1−The absorbance(OD)of cells with tested drugs/The absorbance(OD)of the blank control group)×100%
The absorbance (OD) of cells with tested drugs: OD value is measured with the test drugs.
The absorbance (OD) of the blank control group: OD value is measured without the test drugs. […]

Kinase inhibition rate (VEGFR-2) (VEGFR-2)	SMILES	The inhibitory effect on the growth of chorioallantoic membrane vessels [1]	Rat Aortic Ring Assay (10 ug/ml), result in words (Rat aortic ring)	inhibition at 10 µg/mL (Rat aortic ring) [%]	pIC50 [2]
3.58	COc1cc2c(Nc3ccccc3)nnnc2cc1OCCCCl [Example 61, 6-methoxy-7-chloropropoxy-4-anilino-benzo[d][1,2,3]triazine]	One sample exhibits inhibition ring at the zone covered by paper.	No significant inhibition	–	–
12.83	Clc1cccc(Nc2nnnc3ccccc23)c1 [Example 4, 4-(3-chloroanilino)-benzo[d][1,2,3]triazine]	The vascular growth is abundant	–	–	–
1.51	COc1cc2c(Nc3ccc(C(F)(F)F)cc3)nnnc2cc1OCCCCl [Example 68, 6-methoxy-7-chloropropoxy-4-(4-trifluoromethylanilino)-benzo[d][1,2,3]triazine]	Two samples exhibit inhibition at the zone covered by paper.	Vascular growth is significantly inhibited	–	–
–	CCCCOc1cc2nnnc(Nc3ccc(OC(F)(F)F)cc3)c2cc1OC [Example 20, 6-methoxy-7-n-butoxy-4-(4-trifluoromethoxyanilino)-benzo[d][1,2,3]triazine]	One of the two samples exhibits significant inhibition, and the other	Cell proliferation and migration were not significantly affected,	–	–
–	CCOc1cc2nnnc(Nc3cccc(Cl)c3)c2cc1OC [Example 38, 6-methoxy-7-ethoxy-4-(3-chloroanilino)-benzo[d][1,2,3]triazine]	One embryo is dead.	No significant inhibition	–	–
–	CCOc1cc2nnnc(Nc3ccccc3F)c2cc1OC [Example 41, 6-methoxy-7-ethoxy-4-(2-fluoroanilino)-benzo[d][1,2,3]triazine]	One embryo is dead, and the other exhibits no significant inhibition	No significant inhibition	–	–
−33.42	FC(F)(F)Oc1ccc(Nc2nnnc3ccccc23)cc1 [Example 6, 4-(4-trifluoromethoxyanilino)-benzo[d][1,2,3]triazine]	One of the two samples exhibits significant fracture,	No significant inhibition	–	–
46.67	CCOc1cc2nnnc(Nc3ccc(F)c(Cl)c3)c2cc1OC [Example 39, 6-methoxy-7-ethoxy-4-(3-chloro-4-fluoroanilino)-benzo[d][1,2,3]triazine]	One embryo is dead, and the other exhibits no significant inhibition	No significant inhibition	–	–
−17.64	FC(F)(F)Oc1cccc(Nc2nnnc3ccccc23)c1 [Example 7, 4-(3-trifluoromethoxyanilino)-benzo[d][1,2,3]triazine]	Two samples exhibit significant inhibition ring	No significant inhibition	–	–
0.26	COc1cc2c(Nc3ccccc3F)nnnc2cc1OCCCCl [Example 74, 6-methoxy-7-chloropropoxy-4-(2-fluoroanilino)-benzo[d][1,2,3]triazine]	The vessels become rare and are fractured at the zone covered by paper.	Vessel density was small, cells were elongated and cell	–	–
0.80	COc1cc2c(Nc3cccc(Br)c3)nnnc2cc1OCCCCl [Example 75, 6-methoxy-7-chloropropoxy-4-(3-bromoanilino)-benzo[d][1,2,3]triazine]	Smaller inhibition ring appears at the zone covered by paper.	No significant inhibition	–	–
−9.35	CCCCCOc1cc2nnnc(Nc3cccc(C(F)(F)F)c3)c2cc1OC [Example 50, 6-methoxy-7-pentyloxy-4-(3-trifluoromethylanilino)-benzo[d][1,2,3]triazine]	One of the two samples exhibits inhibition ring.	No significant inhibition compared with the blank control	–	–
–	CCOc1cc2nnnc(Nc3cccc(C(F)(F)F)c3)c2cc1OC [Example 34, 6-methoxy-7-ethoxy-4-(3-trifluoromethylanilino)-benzo[d][1,2,3]triazine]	One of the two samples exhibits significant inhibition zone, and the other	–	> 80	–
–	CCOc1cc2nnnc(Nc3cccc(Br)c3)c2cc1OC [Example 42, 6-methoxy-7-ethoxy-4-(3-bromoanilino)-benzo[d][1,2,3]triazine]	One of the two samples exhibits inhibition	–	~40	–
15.87	Clc1ccc2nnnc(Nc3ccccc3)c2n1 [Example 78, 6-chloro-4-anilino-pyrido[3,2-d][1,2,3]triazine]	–	No significant inhibition in the previous 3 days, but vascular ring	–	4.97
16.65	COc1cc2c(Nc3ccc(OC(F)(F)F)cc3)nnnc2cc1OCCCCl [Example 70, 6-methoxy-7-chloropropoxy-4-(4-trifluoromethoxyanilino)-benzo[d][1,2,3]triazine]	–	–	> 50	4.63
–	CCCCCOc1cc2nnnc(Nc3ccc(F)cc3)c2cc1OC [Example 59, 6-methoxy-7-pentyloxy-4-(4-fluoroanilino)-benzo[d][1,2,3]triazine]	The vessels become fewer, but not thinner. The medicine precipitates out.	No significant inhibition	–	–
